Results on two molecules are retold here after article PMC12165799, “Antimicrobial peptide developed with machine learning sequence optimization targets drug resistant Staphylococcus aureus in mice” (The Journal of Clinical Investigation, 2025).

Bounds are passed on as bounds.

One experiment has as its system S. aureus JE2. Details: method as in PMID 31336137. Particulars: S. aureus JE2 (USA300 isolate); cited from earlier work. The source says:
In MRSA, antimicrobial resistance is linked to life-threatening infections, such as pneumonia, sepsis, and endocarditis ([48]). The situation is further complicated by the presence of S. aureus bacteria in alternative physiological states such as biofilms and persister cells, which are often neglected in early antimicrobial drug discovery stages even though they contribute substantially to chronic, relapsing infections ([49]).

In a further experiment the test system is S. aureus MW2 membrane. Kind of experiment: Propidium iodide-based membrane permeability. Particulars: S. aureus MW2, 60 minutes. Type of experiment: cell-based, Staphylococcus aureus. Here is the method:
484 min at room temperature in the dark based on a previously established protocol (8). We added 90
485 µl of the dye/bacteria mixture to 10 μl of serially diluted 10× peptide concentration in black, 96-
486 well plates (Cat. no. 3904, Corning, NY, USA) and incubated the plates for 1 hour at room
487 temperature. We measured the fluorescence with excitation and emission wavelengths of 485 nm
488 and 525 nm, respectively in endpoint assay mode using a SpectraMax i3x (Molecular Devices,
489 CA, USA) fluorescence reader.
490 Propidium iodide-based membrane permeability
491 We used a propidium iodide (Thermo Fisher Scientific, MA, USA) fluorescence-based
492 bacterial permeation assay to establish membrane-oriented interactions with the designed peptides
493 based on a previously established protocol (8). We prepared exponential phase S. aureus MW2
494 bacteria and diluted to OD600 = 0.4 in PBS. We added PI dye (final concentration = 2 µM) to the
495 bacteria in 1:10 serial dilutions in black, 96-well plates (Cat. no. 3904, Corning, NY, USA) and
496 incubated the plates for 1 hour at room temperature. We then measured the fluorescence with an
497 excitation wavelength of 584 nm and an emission wavelength of 620 nm in endpoint assay mode
498 using a SpectraMax i3x (Molecular Devices, CA, USA) fluorescence reader.
501 To determine the ATP leakage potential of the peptides, we employed a luciferase-based
502 assay(18). In brief, we washed exponential phase of S. aureus MW2 bacteria three times with PBS
503 (pH 7.4) and adjusted the washed cells to OD600 = 0.4 in PBS. Following treatment of the bacteria
504 with 32 µg/ml of CIT-8 peptide at 37°C for 30 min, we centrifuged the cells at 14,000× g for 5
505 min. We transferred 50 µl of each supernatant fraction to black, clear-bottom, 96-well plates

The test system of experiment [1] is S. aureus VRS1 (VRSA) exponential and persister cells. Kind of experiment: S. aureus persister cell and time-kill assays (VRS1). Particulars: approximately 1 × 10^7 CFU. Type of experiment: cell-based, Staphylococcus aureus. As for the experimental part: 305 Minimal inhibitory concentration (MIC) assay
We made serial dilutions of 10×
We determined the MIC using OD600
Accordingly, we added 150 mM NaCl,
319 established protocol (5).
323 aureus VRS1) in PBS. To assess the killing kinetics of CIT-8 in persister cells, we added 1 ml of
324 cell suspension to the wells of a 2-ml deep-well assay block (Cat no. 3960, Corning, NY, USA)
We also included ciprofloxacin (at 10 μg/ml) for S.
326 aureus MW2 and linezolid (100 μg/ml) for S. aureus VRS1 as antibiotic controls. Additionally,
327 we included bithionol (at 10 μg/ml) as a positive control, known for its ability to kill stationary
328 phase persister cells (6). We incubated the plates at 37°C, with shaking at 225 rpm. At specific
329 times (0, 15, 30, 60, and 120 min), we collected 10 μl samples, diluted them serially, and then
330 plated them on tryptic soy agar (TSA) (BD Difco, NJ, USA) plates. We incubated the TSA plates
331 for 18 hours at 37°C for colony counting. We performed these experiments in duplicate. As a
332 comparison, we prepared the exponential cells of S. aureus MW2 and VRS1 in PBS and analyzed
333 their killing kinetics in the same manner as described for persister cells.

In experiment [2] the test system is VRSA (S. aureus VRS1) biofilm. Kind of experiment: Biofilm viability assay on solid support (VRS1). Type of experiment: cell-based, Staphylococcus aureus. The conditions noted are these: 40 μg/mL, 24 h established biofilm.
Experiment [3] relates to MRSA (S. aureus MW2) biofilm. Nature of the experiment: Biofilm viability assay on solid support (MW2). In kind it is cell-based, Staphylococcus aureus. Particulars: 40 μg/mL, 24 h established biofilm.
Experiment [4] relates to S. aureus MW2 biofilm formation. The conditions noted are these: crystal violet, 24 h. As for the experimental part: 349 Prevention of S. aureus MW2 biofilm formation
350 We evaluated the ability of the citropin 1.1-derived peptides to inhibit biofilm formation
351 following an established protocol with modifications (5). In short, we prepared exponential
352 cultures of S. aureus MW2 (adjusted to OD600 = 0.01) in TSB medium (supplemented with 0.2%
353 glucose) from overnight cultures. We added 90 µl of the bacterial culture to 10 µl of serially diluted
354 10× peptide solution in flat-bottomed 96-well polystyrene microtiter plates (Cat no. Corning 3595,
(§1) We used TSB medium containing
(§2) 356 bacteria with water as the positive control, while TSB media with sterile water served as the
(§3) 357 negative control. After incubation, we carefully removed the TSB medium and washed the wells
(§4) 358 with PBS (Gibco, MD, USA) to remove loosely attached planktonic cells. We quantified the
(§5) 359 biomass by staining the biofilms with crystal violet following an established protocol and
(§6) 360 quantitated the concentration of peptide that inhibits 50% of biofilm formation (MBIC50)(8). We
(§7) 361 measured the live cell count of the biofilms using XTT dye [2,3-bis(2-methyloxy-4-nitro-5-
362 sulfophenyl)-2H-tertazolium-5-carboxanilide] (ATCC, VA, USA).

Experiment [5] has as its system S. aureus MW2 24 h established biofilm. The conditions noted are these: crystal violet, 24 h established biofilm, 24 h treatment. Here is the method:
346 plated onto TSA plates, and incubated plates at 37°C overnight. The next day, we counted the
347 viable bacterial colonies.
as §1, §2, §3, §4, §5, §6, §7
362 sulfophenyl)-2H-tertazolium-5-carboxanilide] (ATCC, VA, USA). We calculated the percentage
363 of biofilm growth by normalizing to biofilm growth in wells containing bacteria without peptide
366 Disruption of S. aureus MW2 established biofilms
367 We evaluated the ability of the citropin 1.1-derived peptides to disrupt established biofilms
368 following an established protocol with modifications (5). We prepared exponential cultures of S.
369 aureus MW2 (adjusted to 1 × 10^6 CFU/ml) in TSB medium (supplemented with 0.2% glucose)
370 from overnight grown cultures. We added 100 µl of bacterial culture to flat-bottomed 96-well
371 polystyrene microtiter plates (Cat no. 3595, Corning, NY, USA). We then incubated the plates at
372 37°C for 24 hours in static conditions to allow biofilm formation. After incubation, we carefully
373 pipetted out the TSB medium and washed the wells with PBS (Gibco, MD, USA) to remove
374 loosely attached planktonic cells. We treated the established biofilms in each well with 10 µl of
375 serially diluted 10× peptide solution, followed by the addition of 90 μl TSB medium
376 (supplemented with 0.2% glucose). We incubated the plates for another 24 h at 37°C before
377 processing biomass and live-cell contents. We calculated the concentration of peptide that disrupts
378 50% of established biofilms (MBEC50).

For orientation: MIC means the smallest concentration in the dilution series that meets the test's criterion for growth inhibition. In the case of citropin 1.1, the MIC with S. aureus JE2 is 32 µg/mL.

For `CC[C@H](C)[C@H](NC(=O)CN)C(=O)NCC(=O)N[C@@H](C)C(=O)N[C@H](C(=O)N[C@@H](CC(C)C)C(=O)N[C@@H](CCCCN)C(=O)N[C@H](C(=O)N[C@@H](CC(C)C)C(=O)N[C@H](C(=O)N[C@H](C(=O)NCC(=O)N[C@@H](CC(C)C)C(=O)N1CCC[C@H]1C(=O)N[C@@H](C)C(=O)N[C@@H](CC(C)C)C(=O)N[C@H](C(=O)N[C@@H](CO)C(=O)N[C@@H](Cc1c[nH]c2ccccc12)C(=O)N[C@H](C(=O)N[C@@H](CCCCN)C(=O)N[C@@H](CCCNC(=N)N)C(=O)N[C@@H](CCCCN)C(=O)N[C@@H](CCCNC(=N)N)C(=O)N[C@@H](CCC(N)=O)C(=O)N[C@@H](CCC(N)=O)C(N)=O)[C@@H](C)CC)[C@@H](C)CC)[C@@H](C)O)[C@@H](C)O)C(C)C)C(C)C` [melittin, reference compound], the “Propidium iodide fluorescence (membrane permeation)” value in the experiment on S. aureus MW2 membrane is given as “elevated fluorescence levels”. In addition, the “Time to elimination of exponential and persister cells of VRSA” value in experiment [1] was ≤ 120 min. Further, the “Reduction of VRSA biofilm burden on solid membrane” value in experiment [2] came to 3.9 logs. Besides, in experiment [3], the “Reduction of MRSA biofilm burden on solid membrane” value turned out to be 1.85 logs. The “MBIC50 (biomass reduced by 50%)” value in experiment [4] stood at 4.8 µg/mL. In addition, in experiment [5], the “MBEC50 (50% of biomass disrupted)” value was 2.3 µg/mL.
